In US20230293526A1, “METHOD FOR TREATING CANCER WITH A REVERSE TRANSCRIPTASE INHIBITOR” (PrimeFour Therapeutics, Inc., priority 2020, published 2023):
Like-named read-outs stand apart in the source and are kept apart here.

Test system: human LINE-1
Experiment: Human LINE-1 (L1) retrotransposition dual-luciferase reporter assay in HeLa cells
Type: cell-based
Conditions: read-out: Human LINE-1 IC50 (Human L1 activity inhibition)
Procedure: Representative compounds were tested for inhibition of retrotransposition activity of human LINE-1 (L1) retrotransposition reporter assay in HeLa cells according to the following procedure.
Human Cervical Adenocarcinoma Cells (HeLa) were cultured in Dulbecco's Modified Eagle's Medium (DMEM) containing 4500 mg/L glucose, L-glutamine, sodium pyruvate and sodium bicarbonate, supplemented with 10% of heat inactivated fetal bovine serum (FBS). Cells were grown at 37° C. in an atmosphere of 5% CO2. The dual luciferase-encoding plasmid pYX017 was provided by Prof Wenfeng An (Xie, et al., 2011, Nucleic Acids Res).
The reporter assay was performed in 96-well white, optical bottom plates (Thermo Fisher, 165306). 24 hours prior to transfection, HeLa cells were seeded in a density of 2,500 cells per well, in 50 μL of DMEM, 10% FBS media volume. Cells were incubated at 37° C. in an atmosphere of 5% CO2. Seeding was optimized to achieve approximately 30% cell confluency on the day of transfection. A transfection mix was prepared by combining transfection reagent FuGENE® HD (Promega, E2311) and plasmid DNA (100 ng per well) in a 3:1 ratio, in OpiMEM media (Thermo Fisher, 31985062). Next, 5 μL of the transfection mix was combined with 20 μL of DMEM, 10% FBS media, and 25 μL of this mix was added into each well of an assay plate. In each assay plate one column remained untransfected to serve as a blank luminescence signal.
Serial dilution of test compounds was performed in DMSO and transferred to medium. Next, 25 μL of media-diluted compounds series were transferred to an assay plate containing cells and transfection media. The final concentration of DMSO in treated wells was 0.2%. Serial dilutions of compounds were added to an assay plate immediately after transfection. Compounds were tested in triplicates. The assay plate was then incubated with transfection reagent and compounds at 37° C. in an atmosphere of 5% CO2 for 72 hours.
Luciferase reporter activity was quantified with the Dual-Luciferase® Reporter Assay System (Promega) following the manufacturer's manual, with a passive lysis buffer volume increased to 30 μL and lysis incubation time increased to 20 min at room temperature with gentle shaking, to ensure complete cell lysis. Luminescence was measured using a SpectraMax i3×Multi-Mode Microplate Reader, with integration times of 100 ms and 10 ms applied to measure FLuc and RLuc signals, respectively. Relative LNE-1 activity was calculated as Firefly signal/Renilla signal*10,000. In order to determine IC50 values for each compound, dose response data were fit to a logistic using non-linear regression.

Row | Compound | IC50 (Homo sapiens, HeLa, 72 h) [nM] | other results
1 | C#C[C@@]1(CO)C=C[C@H](n2cc(Br)c(=O)[nH]c2=O)O1 [compound 17] | 910 | –
2 | CC(C)OC(=O)OCOP(=O)(CO[C@H](C)Cn1cnc2c(N)ncnc21)OCOC(=O)OC(C)C [Tenofovir Disoproxil, reference compound] | 190 | –
3 | C=C[C@]1(CO)O[C@@H](n2ccc(N)nc2=O)C[C@@H]1O [compound 24] | 10 | –
4 | CC#C[C@]1(CO)C=C[C@H](n2cc(C)c(=O)[nH]c2=O)O1 [compound 16] | > 25000 | –
5 | Nc1ccn([C@@H]2CS[C@H](CO)O2)c(=O)n1 [Lamivudine, reference compound] | 660 | –
6 | O=C1Nc2ccc(Cl)cc2[C@@](C#CC2CC2)(C(F)(F)F)O1 [Efavirenz, reference compound] | > 50000 | –
7 | CC[C@]1(CO)O[C@@H](n2cc(C)c(=O)[nH]c2=O)C[C@@H]1O [compound 26] | 2050 | –
8 | CC[C@]1(CO)O[C@@H](n2cnc3c(N)nc(N)nc32)C[C@@H]1O [compound 27] | – | IC50 (72 hours): 2.6 nM
9 | C[C@H](Cn1cnc2c(N)ncnc21)OCP(=O)(O)O [Tenofovir, reference compound] | – | IC50 (72 hours): 2700 nM
10 | C#C[C@@]1(CO)C=C[C@H](n2cc(C)c(=O)[nH]c2=O)O1 [Censavudine, reference compound] | 70 | –
11 | Nc1ccn([C@H]2CO[C@@H](CO)S2)c(=O)n1 [Apricitabine, reference compound] | 6340 | –
12 | C#C[C@]1(CO)O[C@@H](n2cnc3c(N)ncnc32)C[C@@H]1O [compound 23] | > 50000 | –
13 | CC(C)OC(=O)[C@H](C)N[P@](=O)(CO[C@H](C)Cn1cnc2c(N)ncnc21)Oc1ccccc1 [Tenofovir Alafenamide (TAF), Tenofovir Alafenamide, reference compound] | – | IC50 (Homo sapiens, 72 hours): 10 nM
14 | Nc1ccn([C@H]2CC[C@@H](CO)O2)c(=O)n1 [Zalcitabine, reference compound] | 66 | –
15 | C=C1[C@H](CO)[C@@H](O)C[C@@H]1n1cnc2c(=O)[nH]c(N)nc21 [Entecavir, reference compound] | 1450 | –
16 | C#C[C@]1(CO)O[C@@H](n2cc(Br)c(=O)[nH]c2=O)C[C@@H]1O [compound 4] | 490 | –
17 | O=c1[nH]cnc2c1ncn2[C@H]1CC[C@@H](CO)O1 [Didanosine, reference compound] | 530 | –
18 | C#C[C@]1(CO)O[C@@H](n2cc(C)c(N)nc2=O)C[C@@H]1O [compound 6] | 18600 | –
19 | Cc1cn([C@H]2C=C[C@@H](CO)O2)c(=O)[nH]c1=O [Stavudine, reference compound] | 750 | –
20 | C#C[C@@]1(CO)C=C[C@H](n2cnc3c(N)nc(F)nc32)O1 [compound 19] | > 12500 | –
21 | C#C[C@]1(CO)O[C@@H](n2cnc3c(N)nc(N)nc32)C[C@@H]1O [compound 22] | – | IC50 (72 hours): 23400 nM
22 | C#C[C@]1(CO)O[C@@H](n2cnc3c(N)nc(N)nc32)C[C@@H]1O [compound 12] | – | IC50 (72 hours): 6.2 nM
23 | Cc1cn([C@H]2C[C@H](N=[N+]=[N-])[C@@H](CO)O2)c(=O)[nH]c1=O [AZT, zidovudine, reference compound] | 630 | –
24 | C=C[C@]1(CO)O[C@@H](n2cnc3c(N)nc(F)nc32)C[C@@H]1O [compound 20, (2R,3S,5R)-5-(6-amino-2-fluoro-9H-purin-9-yl)-2-(hydroxymethyl)-2-vinyltetrahydrofuran-3-ol] | 11 | –
25 | Cc1ccnc2c1NC(=O)c1cccnc1N2C1CC1 [Nevirapine, reference compound] | > 50000 | –
26 | C#C[C@]1(CO)O[C@@H](n2cc(C)c(=O)[nH]c2=O)C[C@@H]1O [compound 2] | 390 | –
27 | Nc1nc(=O)n([C@@H]2CS[C@H](CO)O2)cc1F [Emtricitabine (FTC), Emtricitabine, reference compound] | 480 | –
28 | Nc1ncnc2c1ncn2CCOCP(=O)(O)O [Adefovir, reference compound] | > 6250 | –
29 | C=C[C@@]1(CO)C=C[C@H](n2cc(C)c(=O)[nH]c2=O)O1 [compound 18] | 12500 | –
